What was measured:
Assay in all cases: relative viability (nuclei count vs DMSO), 5 days (fraction); higher = more cells survive
Palbociclib + OSI-027 = compound: CC(=O)c1c(C)c2cnc(Nc3ccc(N4CCNCC4)cn3)nc2n(C2CCCC2)c1=O [Palbociclib] + COc1cccc2cc(-c3nc([C@H]4CC[C@H](C(=O)O)CC4)n4ncnc(N)c34)[nH]c12 [OSI-027] (partner 0.5 µM)
Procedure, shortened: (§1)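 Lung cancer cell lines in 1536-well plates were dosed by pin tool the day after seeding, either with one drug alone or with a fixed anchor-drug dose plus five library-drug doses (not always all listed) in √10 steps. After 5 days, cells were fixed and their nuclei stained in one step (final 0.05% Triton X-100, 1% formaldehyde, 1 ug/ml Hoechst), then counted on 4× images. Relative viability is the nuclei count in treated wells divided by that in vehicle wells. Values are medians of duplicate plates.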

Palbociclib + Foretinib = compound: CC(=O)c1c(C)c2cnc(Nc3ccc(N4CCNCC4)cn3)nc2n(C2CCCC2)c1=O [Palbociclib] + COc1cc2c(Oc3ccc(NC(=O)C4(C(=O)Nc5ccc(F)cc5)CC4)cc3F)ccnc2cc1OCCCN1CCOCC1 [Foretinib] (partner 0.25 µM)
Procedure, shortened: as §1

Palbociclib + Alpelisib = compound: CC(=O)c1c(C)c2cnc(Nc3ccc(N4CCNCC4)cn3)nc2n(C2CCCC2)c1=O [Palbociclib] + Cc1nc(NC(=O)N2CCC[C@H]2C(N)=O)sc1-c1ccnc(C(C)(C)C(F)(F)F)c1 [Alpelisib] (partner 2 µM)
Procedure, shortened: as §1

Palbociclib + Linsitinib = compound: CC(=O)c1c(C)c2cnc(Nc3ccc(N4CCNCC4)cn3)nc2n(C2CCCC2)c1=O [Palbociclib] + C[C@]1(O)C[C@@H](c2nc(-c3ccc4ccc(-c5ccccc5)nc4c3)c3c(N)nccn32)C1 [Linsitinib] (partner 1 µM)
Procedure, shortened: as §1

| Cell Line | relative viability (Palbociclib + OSI-027; first compound 0.01 µM) | relative viability (Palbociclib + OSI-027; first compound 0.03162 µM) | relative viability (Palbociclib + OSI-027; first compound 0.1 µM) | relative viability (Palbociclib + OSI-027; first compound 0.3162 µM) | relative viability (Palbociclib + OSI-027; first compound 1 µM) | relative viability (Palbociclib + Foretinib; first compound 0.01 µM) | relative viability (Palbociclib + Foretinib; first compound 0.03162 µM) | relative viability (Palbociclib + Foretinib; first compound 0.1 µM) | relative viability (Palbociclib + Foretinib; first compound 0.3162 µM) | relative viability (Palbociclib + Foretinib; first compound 1 µM) | relative viability (Palbociclib + Alpelisib; first compound 0.01 µM) | relative viability (Palbociclib + Alpelisib; first compound 0.03162 µM) | relative viability (Palbociclib + Alpelisib; first compound 0.1 µM) | relative viability (Palbociclib + Alpelisib; first compound 0.3162 µM) | relative viability (Palbociclib + Alpelisib; first compound 1 µM) | relative viability (Palbociclib + Linsitinib; first compound 0.01 µM) | relative viability (Palbociclib + Linsitinib; first compound 0.03162 µM) | relative viability (Palbociclib + Linsitinib; first compound 0.1 µM) | relative viability (Palbociclib + Linsitinib; first compound 0.3162 µM) | relative viability (Palbociclib + Linsitinib; first compound 1 µM) |
| --- | --- | --- | --- | --- | --- | --- | --- | --- | --- | --- | --- | --- | --- | --- | --- | --- | --- | --- | --- | --- |
| NCI-H1563 | 0.75 | 0.776 | 0.74 | 0.735 | 0.534 | 0.972 | 0.89 | 0.821 | 0.853 | 0.8 | 0.896 | 0.887 | 0.897 | 0.808 | 0.765 | 1.19 | 1.25 | 1.15 | 1 | 0.887 |
| SK-LU-1 | 0.375 | 0.316 | 0.231 | 0.241 | 0.202 | 0.825 | 0.74 | 0.571 | 0.552 | 0.361 | 1.02 | 0.921 | 0.581 | 0.599 | 0.464 | 0.975 | 1.06 | 0.777 | 0.771 | 0.627 |
| EPLC-272H | 0.293 | – | 0.257 | 0.254 | 0.213 | 0.794 | – | 0.572 | 0.689 | 0.435 | 1.13 | – | 0.808 | 0.69 | 0.658 | 1.15 | – | 0.988 | 0.999 | 0.716 |
| NCI-H2342 | 0.575 | 0.546 | 0.566 | 0.549 | 0.433 | 0.986 | 0.974 | 0.749 | 0.995 | 0.662 | – | – | – | – | – | – | – | – | – | – |
| ABC-1 | 0.483 | 0.443 | 0.436 | 0.351 | 0.301 | 0.963 | 0.808 | 0.852 | 0.763 | 0.709 | 1.28 | 0.91 | 0.785 | 0.751 | 0.412 | 1.06 | 0.925 | 0.666 | 0.583 | 0.382 |
| LCLC-97TM1 | 0.586 | 0.353 | 0.349 | 0.219 | 0.221 | 0.861 | 0.883 | 0.854 | 0.67 | 0.514 | 0.291 | – | 0.189 | 0.209 | 0.189 | 0.185 | – | 0.167 | 0.165 | 0.158 |
| SW 900 | 0.582 | – | 0.399 | 0.322 | 0.358 | 0.902 | – | 0.844 | 0.649 | 0.625 | – | – | – | – | – | – | – | – | – | – |
| NCI-H661 | 0.77 | 0.552 | 0.464 | 0.354 | 0.313 | 1.01 | 0.792 | 0.695 | 0.626 | 0.495 | 0.92 | 0.686 | 0.583 | 0.382 | 0.508 | 0.547 | 0.529 | 0.46 | 0.421 | 0.351 |
| PC-3 [JPC-3] | 0.728 | 0.599 | 0.561 | 0.483 | 0.349 | 1.1 | 0.955 | 0.884 | 0.855 | 0.64 | 1.06 | 1.02 | 0.851 | 0.88 | 0.618 | 0.981 | 0.888 | 0.878 | 0.787 | 0.613 |
| NCI-H1299 | – | – | – | – | – | 1.05 | 0.996 | 1.02 | 0.942 | 0.754 | 1 | 1.02 | 0.949 | 0.956 | 0.865 | 0.961 | 0.983 | 0.908 | 0.866 | 0.685 |
| NCI-H1792 | 0.821 | 0.688 | 0.649 | 0.537 | 0.485 | – | – | – | – | – | 0.679 | 0.603 | 0.543 | 0.637 | 0.408 | 0.52 | 0.435 | 0.397 | 0.371 | 0.25 |
| HCC-44 | 0.487 | 0.492 | 0.512 | 0.582 | 0.482 | – | – | – | – | – | 0.728 | 0.789 | 0.819 | 0.798 | 0.774 | 0.661 | 0.648 | 0.691 | 0.679 | 0.661 |
| NCI-H1703 | – | – | – | – | – | 0.259 | 0.308 | 0.287 | 0.28 | 0.292 | 0.298 | 0.346 | 0.301 | 0.231 | 0.182 | 1.11 | 0.64 | 0.673 | 0.617 | 0.323 |
| ChaGo-K-1 | 0.594 | 0.396 | 0.661 | 0.563 | 0.594 | 0.928 | 0.797 | 1.1 | 0.959 | 0.977 | – | – | – | – | – | – | – | – | – | – |
| NCI-H522 | 0.772 | 0.606 | 0.777 | 0.765 | 0.765 | – | – | – | – | – | – | – | – | – | – | – | – | – | – | – |
| A549 | – | – | – | – | – | 0.925 | 0.831 | 0.754 | 0.635 | 0.43 | 0.741 | 0.651 | 0.486 | 0.356 | 0.254 | 0.619 | 0.38 | 0.316 | 0.457 | 0.274 |
| NCI-H1650 | 0.701 | 0.404 | 0.522 | 0.481 | 0.403 | 1.3 | 0.808 | 0.954 | 0.934 | 0.65 | – | – | – | – | – | – | – | – | – | – |
| NCI-H2170 | 0.72 | 0.642 | 0.61 | 0.638 | 0.407 | 1.03 | 0.969 | 0.955 | 0.889 | 0.852 | 0.797 | 0.767 | 0.776 | 0.715 | 0.601 | – | – | – | – | – |
| IA-LM | – | – | – | – | – | 1.06 | 0.959 | 0.862 | 0.514 | 0.313 | 0.826 | 0.675 | 0.456 | 0.373 | 0.144 | 0.492 | 0.399 | 0.395 | 0.221 | 0.118 |

— the supplement of paper PMC10307832
